“Also recorded” adds a separate entry of the source.
How the values were obtained:
[1] = target: TYK2 (Homo sapiens (Human), UniProt P29597); assay: In vitro activity test of TYK2 kinase; format: biochemical
Description: (§1) Recombinant human JAK1, JAK2, JAK3, TyK2 protease, main instruments and reagents were provided by Eurofins in the UK
(§2) All compounds were prepared into a 100% DMSO solution and reached 50 times the final determined concentration. The test compound was diluted by 3 times the concentration gradient, and the final concentration was 10 μM to 0.001 μM, 9 concentrations in total, and the content of DMSO in the detection reaction was 2%. The working stock solution of the compound was added to a determination hole as the first component of the reaction, and then the remaining components were added according to the detailed scheme determination below.
(§3) Mg/ATP mixture was added to start the reaction. After incubation at room temperature for 40 minutes, 0.5% phosphoric acid was added to stop the reaction.

[2] = target: JAK1 (Homo sapiens (Human), UniProt P23458); assay: In vitro activity test of JAK1 kinase; format: biochemical
JAK1, sequence (P23458 whole entry): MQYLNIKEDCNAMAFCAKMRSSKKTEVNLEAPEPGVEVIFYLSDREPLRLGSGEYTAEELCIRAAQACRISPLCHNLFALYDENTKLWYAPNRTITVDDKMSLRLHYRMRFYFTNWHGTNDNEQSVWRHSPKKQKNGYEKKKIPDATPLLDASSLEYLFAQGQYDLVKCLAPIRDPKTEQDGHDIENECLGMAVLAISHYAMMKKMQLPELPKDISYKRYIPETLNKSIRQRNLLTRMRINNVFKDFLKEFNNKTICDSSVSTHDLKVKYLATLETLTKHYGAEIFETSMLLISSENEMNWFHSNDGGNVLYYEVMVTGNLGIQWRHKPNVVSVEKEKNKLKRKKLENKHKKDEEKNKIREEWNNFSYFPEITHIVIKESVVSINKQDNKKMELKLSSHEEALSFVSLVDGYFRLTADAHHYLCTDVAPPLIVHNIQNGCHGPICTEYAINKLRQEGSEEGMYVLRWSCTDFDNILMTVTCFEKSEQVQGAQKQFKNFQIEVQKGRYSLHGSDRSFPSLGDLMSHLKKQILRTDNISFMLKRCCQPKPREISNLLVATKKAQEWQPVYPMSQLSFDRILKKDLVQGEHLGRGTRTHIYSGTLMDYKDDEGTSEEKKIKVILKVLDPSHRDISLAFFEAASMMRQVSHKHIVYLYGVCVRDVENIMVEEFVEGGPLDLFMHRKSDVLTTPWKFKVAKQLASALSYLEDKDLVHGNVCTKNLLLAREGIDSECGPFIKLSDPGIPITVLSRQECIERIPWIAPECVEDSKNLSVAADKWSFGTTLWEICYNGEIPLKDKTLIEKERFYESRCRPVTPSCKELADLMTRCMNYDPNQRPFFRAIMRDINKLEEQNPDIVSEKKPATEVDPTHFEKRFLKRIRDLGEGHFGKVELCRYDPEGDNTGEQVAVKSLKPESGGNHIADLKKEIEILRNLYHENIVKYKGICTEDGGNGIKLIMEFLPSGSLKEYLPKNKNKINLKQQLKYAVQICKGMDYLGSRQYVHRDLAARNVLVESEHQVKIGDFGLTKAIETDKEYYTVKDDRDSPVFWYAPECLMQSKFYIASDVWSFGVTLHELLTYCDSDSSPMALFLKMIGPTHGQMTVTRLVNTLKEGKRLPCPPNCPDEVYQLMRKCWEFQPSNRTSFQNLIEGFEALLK
Description: as §1, §2, §3

[3] = target: JAK3 (Homo sapiens (Human), UniProt P52333); assay: In vitro activity test of JAK3 kinase; format: biochemical
JAK3, sequence (P52333 whole entry): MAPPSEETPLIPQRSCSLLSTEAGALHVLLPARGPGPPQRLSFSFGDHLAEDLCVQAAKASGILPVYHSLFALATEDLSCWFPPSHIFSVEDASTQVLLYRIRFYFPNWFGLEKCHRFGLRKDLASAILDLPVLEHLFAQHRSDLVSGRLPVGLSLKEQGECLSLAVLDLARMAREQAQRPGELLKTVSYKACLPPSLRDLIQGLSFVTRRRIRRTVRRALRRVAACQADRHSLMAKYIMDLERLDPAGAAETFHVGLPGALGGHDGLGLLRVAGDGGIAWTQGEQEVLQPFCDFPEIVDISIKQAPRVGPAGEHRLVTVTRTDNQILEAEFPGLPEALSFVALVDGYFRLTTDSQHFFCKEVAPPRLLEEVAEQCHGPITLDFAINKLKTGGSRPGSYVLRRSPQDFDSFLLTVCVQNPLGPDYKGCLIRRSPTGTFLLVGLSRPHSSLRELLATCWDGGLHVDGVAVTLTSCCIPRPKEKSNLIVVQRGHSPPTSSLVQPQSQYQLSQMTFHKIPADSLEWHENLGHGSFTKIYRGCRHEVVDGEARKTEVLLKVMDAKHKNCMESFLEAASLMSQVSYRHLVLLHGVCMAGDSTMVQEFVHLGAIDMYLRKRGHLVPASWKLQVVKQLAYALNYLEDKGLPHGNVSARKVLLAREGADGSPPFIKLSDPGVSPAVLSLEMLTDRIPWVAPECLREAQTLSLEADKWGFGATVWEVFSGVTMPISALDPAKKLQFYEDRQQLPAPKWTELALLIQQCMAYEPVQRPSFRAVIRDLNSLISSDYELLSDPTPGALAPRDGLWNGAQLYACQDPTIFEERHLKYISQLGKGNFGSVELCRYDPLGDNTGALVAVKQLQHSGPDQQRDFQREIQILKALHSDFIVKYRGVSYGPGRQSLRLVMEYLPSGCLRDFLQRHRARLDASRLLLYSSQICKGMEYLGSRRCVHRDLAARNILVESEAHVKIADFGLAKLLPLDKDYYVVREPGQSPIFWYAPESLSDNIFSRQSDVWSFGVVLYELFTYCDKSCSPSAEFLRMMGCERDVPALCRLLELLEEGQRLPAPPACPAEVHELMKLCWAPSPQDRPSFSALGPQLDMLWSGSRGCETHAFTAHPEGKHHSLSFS
Description: as §1, §2, §3

[4] = target: JAK2 (Homo sapiens (Human), UniProt O60674); assay: In vitro activity test of JAK2 kinase; settings: read-out: JAK2 (IC50)
JAK2, sequence (O60674 whole entry): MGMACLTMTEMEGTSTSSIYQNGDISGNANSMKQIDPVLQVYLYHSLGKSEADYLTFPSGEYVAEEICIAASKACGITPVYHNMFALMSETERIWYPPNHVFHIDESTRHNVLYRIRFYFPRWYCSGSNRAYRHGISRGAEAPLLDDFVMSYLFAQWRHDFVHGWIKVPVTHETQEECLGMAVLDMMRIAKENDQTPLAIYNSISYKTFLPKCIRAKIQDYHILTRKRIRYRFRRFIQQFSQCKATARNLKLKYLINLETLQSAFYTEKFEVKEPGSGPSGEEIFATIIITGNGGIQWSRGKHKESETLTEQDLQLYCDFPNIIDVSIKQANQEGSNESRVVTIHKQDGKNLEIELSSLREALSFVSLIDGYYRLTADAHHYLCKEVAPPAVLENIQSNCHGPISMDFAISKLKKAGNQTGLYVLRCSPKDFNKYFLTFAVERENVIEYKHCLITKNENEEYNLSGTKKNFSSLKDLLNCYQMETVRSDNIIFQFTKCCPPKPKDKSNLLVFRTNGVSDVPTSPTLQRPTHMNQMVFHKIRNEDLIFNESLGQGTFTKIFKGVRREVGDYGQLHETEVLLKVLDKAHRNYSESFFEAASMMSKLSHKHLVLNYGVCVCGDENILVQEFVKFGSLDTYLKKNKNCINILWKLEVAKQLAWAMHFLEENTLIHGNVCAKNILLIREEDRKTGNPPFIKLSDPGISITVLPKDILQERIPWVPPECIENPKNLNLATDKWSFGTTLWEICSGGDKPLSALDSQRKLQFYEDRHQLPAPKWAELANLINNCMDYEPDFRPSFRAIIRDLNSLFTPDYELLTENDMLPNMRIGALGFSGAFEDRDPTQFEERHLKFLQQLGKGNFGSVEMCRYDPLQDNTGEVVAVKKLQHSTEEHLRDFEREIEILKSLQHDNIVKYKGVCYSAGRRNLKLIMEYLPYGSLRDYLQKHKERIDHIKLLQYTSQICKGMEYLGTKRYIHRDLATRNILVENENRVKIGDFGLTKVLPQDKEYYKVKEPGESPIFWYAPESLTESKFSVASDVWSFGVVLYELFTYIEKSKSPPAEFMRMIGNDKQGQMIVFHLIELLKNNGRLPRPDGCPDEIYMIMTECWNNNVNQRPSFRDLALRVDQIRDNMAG

[5] = system: DSS induced ulcerative colitis and Crohn's disease in mice; assay: In vivo pharmacodynamic study on DSS induced inflammatory bowel disease (IBD) in mice; set-up: species or system mice (C57BL/6); Colon length: unit not given here
Source text: Inflammatory bowl disease (IBD) is a kind of recurrent disease. It is difficult to cure, has a high recurrence rate, and has a poor prognosis, it has a certain correlation with the incidence of colon cancer. The development of drugs for the treatment of IBD will help alleviate the symptoms of ulcerative colitis and Crohn's disease and improve the quality of life of patients. The mouse inflammation model induced by dextran sulfate sodium (DSS) is similar to the human disease ulcerative colitis and Crohn's disease. It is a common classical model for preclinical evaluation of drug efficacy.
Preparation method of DSS: 20 g DSS was weighed, 1000 mL drinking water was added to form 2% DSS solution, and stored in a 4° C. refrigerator. It is effective within one month.
Preparation method of a solvent: Vehicle solution is an aqueous solution containing 0.5% methylcellulose and 0.5% Tween 80. Firstly, 5 g of methylcellulose was dissolved in 990 mL of pure water, then 5 g of Tween 80 was added in small amount for many times, mixed evenly and stored at room temperature.
Preparation method of compounds: the compound was weighed, an aqueous solution with a mass ratio of 0.5% methylcellulose+0.5% Tween 80 was added, and it was processed by ultrasonic until it was dissolved.
The adaptation period of the animals was 3 days. After adaptation, the animals were weighed every day. The blank group was given drinking water, and the other groups were given drinking water containing 2% DSS. The water volume was 5 mL/animal/day. The animals in the test drug group were administrated by gavage once a day. The blank group and […] group were given the same volume of vehicle, with the administration volume of 10 mL/kg. Every other day, the fecal viscosity was evaluated, feces were collected for fecal occult blood detection, and the disease activity index (DAI) score was calculated. DSS consumption was detected every day. Fresh DSS solution was replaced every two days. The dosing cycle was continuous intragastric administration for 7 days, followed by 4 days of drug withdrawal, followed by 7 days of continuous intragastric administration. Normal drinking water was changed when intragastric administration was stopped.
DAI is the sum of the scores of body weight, fecal viscosity and fecal occult blood. Among them, the semi quantitative detection method of piramine cave was adopted for detecting fecal occult blood, including adding piramine cave to the sample first, then adding hydrogen peroxide and ethanol solution, and reading and scoring the color within 2 min. Immediately generating purple blue is marked as 4+, generating the purple blue within 10 s is marked as 3+, generating purple red within 1 min is marked as 2+, and gradually generating the purple red within 1-2 min is marked as 1+, and generating no color reaction of purple orchid or purple red within the reading time is recorded as negative (−). After the experiment, the colon and spleen were taken, and the length of colon and the weight of spleen were measured. The spleen index was the ratio of spleen weight to body weight.

[6] = system: DNCB induced allergic dermatitis in mice; assay: In vivo pharmacodynamic study on DNCB induced allergic dermatitis (AD) in mice
Description: The animal allergic dermatitis model induced by 1-chloro-2,4-dinitrobenzene (DNCB) is basically consistent with the clinical manifestations of AD patients.
Preparation method of solvent: vehicle solution is 30% PEG-400+70% (5% HP-β-CD), pH 4-5. Firstly, 35 g HP-β-CD was dissolved in 700 mL MilliQ pure water, 300 mL PEG-400 was added and mixed well, the pH was adjusted to 4-5, and stored at room temperature.
Preparation method of compounds: the compounds were weighed and added to 30% PEG-400+ 70% (5% HP-β-CD) solution (by volume), and ultrasonically processed. After the solution was fully mixed, it is load into glass bottles and stored in a 4° C. refrigerator.
Seventy male Balb/c mice were weighed and randomly divided into 7 groups with 10 mice in each group.
The animal adaptation period was 3 days. It was adapted to shaving on the back. After 2 days, it was sensitized with the modeling solution, coated with 20 μL 0.5% DNCB solution on the right ear of the mouse, applied with 200 μL 0.5% DNCB solution on the back, once a day for 3 days. The mice were stimulated from day 4, and applied with 10 μL 1% DNCB solution on the right ear of mice, 100 μL 1% DNCB solution on the back of mice, respectively, once every 3 days.
On days 3, 9, 15, 21, and 27, the severity of specific dermatitis was evaluated by evaluating four clinical inflammatory indicators of atopic dermatitis: Erythema/bleeding, scar/dryness, edema, and infiltration/erosion. Each evaluation index has four grades: 0, none; 1. slight; 2. moderate; 3. obvious; 4. very obvious. Sum the scores represents score of the skin. […] The spleen was taken and the spleen index was calculated: spleen index=spleen weight (mg)/body weight (g).
The experimental data were expressed by means±standard error (Mean±SEM), and all data were statistically analyzed by one-way ANOVA, with P<0.05 as the statistical difference.

[7] = day 2, 15 mg/kg p.o. qd, Mean±SEM
[8] = day 4, 15 mg/kg p.o. qd, Mean±SEM
[9] = day 6, 15 mg/kg p.o. qd, Mean±SEM
[10] = day 8, 15 mg/kg p.o. qd, Mean±SEM
[11] = day 12, 15 mg/kg p.o. qd, Mean±SEM
[12] = day 14, 15 mg/kg p.o. qd, Mean±SEM
[13] = day 16, 15 mg/kg p.o. qd, Mean±SEM
[14] = day 18, 15 mg/kg p.o. qd, Mean±SEM
[15] = after the experiment, 30 mg/kg p.o. qd, 28 days, Mean±SEM

TYK2, sequence (P29597 whole entry): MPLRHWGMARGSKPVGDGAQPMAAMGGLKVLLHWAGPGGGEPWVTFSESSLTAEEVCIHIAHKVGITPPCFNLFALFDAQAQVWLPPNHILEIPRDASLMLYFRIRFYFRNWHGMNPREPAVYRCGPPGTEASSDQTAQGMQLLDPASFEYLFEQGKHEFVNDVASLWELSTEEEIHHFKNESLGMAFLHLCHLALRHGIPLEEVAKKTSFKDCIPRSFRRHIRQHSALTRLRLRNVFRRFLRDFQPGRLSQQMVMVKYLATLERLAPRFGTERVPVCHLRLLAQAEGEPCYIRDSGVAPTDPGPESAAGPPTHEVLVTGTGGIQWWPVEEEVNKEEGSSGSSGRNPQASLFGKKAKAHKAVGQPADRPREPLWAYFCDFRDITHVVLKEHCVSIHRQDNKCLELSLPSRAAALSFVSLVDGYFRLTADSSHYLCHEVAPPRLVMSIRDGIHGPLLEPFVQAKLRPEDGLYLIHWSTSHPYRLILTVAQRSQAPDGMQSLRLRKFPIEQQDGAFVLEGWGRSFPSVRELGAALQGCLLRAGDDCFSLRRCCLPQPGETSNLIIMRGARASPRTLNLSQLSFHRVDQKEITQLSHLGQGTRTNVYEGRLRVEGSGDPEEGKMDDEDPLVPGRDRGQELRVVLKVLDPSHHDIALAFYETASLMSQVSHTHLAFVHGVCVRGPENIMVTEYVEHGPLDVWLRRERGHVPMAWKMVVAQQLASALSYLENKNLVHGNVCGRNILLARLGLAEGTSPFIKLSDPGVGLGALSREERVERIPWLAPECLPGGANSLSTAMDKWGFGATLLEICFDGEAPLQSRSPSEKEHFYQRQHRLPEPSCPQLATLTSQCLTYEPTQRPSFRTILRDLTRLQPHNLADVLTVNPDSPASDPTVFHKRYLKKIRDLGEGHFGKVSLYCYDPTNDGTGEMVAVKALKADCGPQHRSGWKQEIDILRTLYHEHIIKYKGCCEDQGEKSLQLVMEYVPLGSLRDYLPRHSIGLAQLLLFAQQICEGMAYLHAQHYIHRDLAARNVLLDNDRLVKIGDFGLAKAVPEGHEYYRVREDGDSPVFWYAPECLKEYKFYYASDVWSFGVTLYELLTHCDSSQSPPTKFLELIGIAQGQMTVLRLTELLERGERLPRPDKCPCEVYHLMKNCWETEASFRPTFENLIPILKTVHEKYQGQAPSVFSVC

## O=C(Nc1nc2cccc(C3CCC4(CC3)CCN(C(=O)C3CC3(F)F)C4)n2n1)C1CC1 (single isomer, unassigned) [Compound 5-8]
[1]
  IC50: 692 nM
[2]
  IC50: 75 nM
[3]
  IC50: 7.35 µM
[4]
  IC50: 789 nM

## O=C(Nc1nc2cccc(C3CCC4(CC3)CCN(C(=O)C3CC3(F)F)C4)n2n1)C1CC1 (single isomer, unassigned) [Compound 5-7]
[1]
  IC50: 67 nM
[2]
  IC50: 31 nM
[3]
  IC50: 5.76 µM
[4]
  IC50: 324 nM

## O=C(Nc1nc2cccc(C3CCC4(CC3)CN(C(=O)[C@H]3CC3(F)F)C4)n2n1)[C@@H]1CC1(F)F [Compound 9-3]
[1]
  IC50: 105 nM
[2]
  IC50: 7 nM
[3]
  IC50: > 10 µM
[5]; 15 mg/kg p.o.
  Colon shortening caused by DSS, compared with DSS group (in words): can reduce colon shortening
  Increase of spleen index induced by DSS (in words): could reduce the increase of spleen index
[5]; after the experiment, 15 mg/kg p.o. qd, Mean±SEM
  Colon length: 2.87 ± 0.11
[5]; day 1, 15 mg/kg p.o. qd, Mean±SEM
  Weight of mice: 22.26 ± 0.29
[5]; [7]
  DAI score: 0.40 ± 0.16
  Weight of mice: 22.48 ± 0.29
[5]; day 3, 15 mg/kg p.o. qd, Mean±SEM
  Weight of mice: 22.39 ± 0.27
[5]; [8]
  DAI score: 1.70 ± 0.54
  Weight of mice: 22.26 ± 0.31
[5]; day 5, 15 mg/kg p.o. qd, Mean±SEM
  Weight of mice: 22.18 ± 0.40
[5]; [9]
  DAI score: 2.40 ± 0.37
  Weight of mice: 22.00 ± 0.43
[5]; day 7, 15 mg/kg p.o. qd, Mean±SEM
  Weight of mice: 21.21 ± 0.53
[5]; [10]
  DAI score: 4.70 ± 0.94
  Weight of mice: 20.72 ± 0.67
[5]; day 9, 15 mg/kg p.o. qd, Mean±SEM
  Weight of mice: 19.89 ± 0.37
[5]; day 10, 15 mg/kg p.o. qd, Mean±SEM
  Weight of mice: 18.92 ± 0.47
[5]; day 11, 15 mg/kg p.o. qd, Mean±SEM
  Weight of mice: 18.60 ± 0.62
[5]; [11]
  DAI score: 4.11 ± 0.53
  Weight of mice: 18.50 ± 0.74
[5]; day 13, 15 mg/kg p.o. qd, Mean±SEM
  Weight of mice: 19.42 ± 0.78
[5]; [12]
  DAI score: 4.88 ± 0.44
  Weight of mice: 19.26 ± 0.93
[5]; day 15, 15 mg/kg p.o. qd, Mean±SEM
  Weight of mice: 19.96 ± 0.84
[5]; [13]
  DAI score: 3.67 ± 0.86
  Weight of mice: 20.84 ± 0.46
[5]; day 17, 15 mg/kg p.o. qd, Mean±SEM
  Weight of mice: 20.42 ± 0.50
[5]; [14]
  DAI score: 4.83 ± 0.68
  Weight of mice: 19.78 ± 0.43
[5]; ratio of spleen weight to body weight, 15 mg/kg p.o. qd, Mean±SEM
  Spleen index: 4.98 ± 0.40
[4]
  IC50: 292 nM
[6]; 30 mg/kg p.o. qd, 28 days
  Effect on the weight of mice (in words): no significant effect
[6]; 30 mg/kg p.o. qd, DNCB mice
  Effect on treating allergic dermatitis (in words): good disease treatment effect; also recorded: significant effect
[6]; 30 mg/kg p.o., vs DNCB group
  Concentration of IgE in serum after drug intervention (in words): significantly decreased
  Spleen index after drug intervention (in words): significantly decreased
  Thickness of the right ear after drug intervention (in words): significantly decreased
[6]; [15]
  IgE concentration in serum: 6.39 ± 1.04
  Thickness of the right ear: 0.252 ± 0.006
[6]; day 1, 30 mg/kg p.o. qd from day 4, Mean±SEM
  Weight of mice: 19.32 ± 0.46
[6]; day 3, 30 mg/kg p.o. qd from day 4, Mean±SEM
  Skin score: 0.7 ± 0.5
[6]; day 4, 30 mg/kg p.o. qd, Mean±SEM
  Weight of mice: 20.02 ± 0.41
[6]; day 7, 30 mg/kg p.o. qd, Mean±SEM
  Weight of mice: 19.24 ± 0.47
[6]; day 9, 30 mg/kg p.o. qd, Mean±SEM
  Skin score: 3.4 ± 0.7
[6]; day 10, 30 mg/kg p.o. qd, Mean±SEM
  Weight of mice: 19.41 ± 0.58
[6]; day 13, 30 mg/kg p.o. qd, Mean±SEM
  Weight of mice: 20.83 ± 0.42
[6]; day 15, 30 mg/kg p.o. qd, Mean±SEM
  Skin score: 4.2 ± 0.6
[6]; day 16, 30 mg/kg p.o. qd, Mean±SEM
  Weight of mice: 21.49 ± 0.45
[6]; day 19, 30 mg/kg p.o. qd, Mean±SEM
  Weight of mice: 23.36 ± 0.38
[6]; day 21, 30 mg/kg p.o. qd, Mean±SEM
  Skin score: 5.4 ± 0.9
[6]; day 22, 30 mg/kg p.o. qd, Mean±SEM
  Weight of mice: 23.67 ± 0.37
[6]; day 25, 30 mg/kg p.o. qd, Mean±SEM
  Weight of mice: 23.14 ± 0.42
[6]; day 27, 30 mg/kg p.o. qd, Mean±SEM
  Skin score: 2.2 ± 0.9
[6]; day 27 of administration, 30 mg/kg p.o.
  Skin score compared with DNCB group (in words): significant reduction
[6]; day 28, 30 mg/kg p.o. qd, Mean±SEM
  Weight of mice: 24.15 ± 0.50
[6]; spleen weight (mg)/body weight (g), 30 mg/kg p.o. qd, 28 days, Mean±SEM
  Spleen index: 4.17 ± 0.65

## N#CCC(=O)N1CC2(CCC(F)(c3cccc4nc(NC(=O)C5CC5)nn34)CC2)C1 [Compound 4-6]
[1]
  IC50: 307 nM
[2]
  IC50: 170 nM
[3]
  IC50: 8.45 µM
[4]
  IC50: 2010 nM

## O=C(Nc1nc2cccc([C@H]3CCC4(CCN(C(=O)[C@@H]5CC5(F)F)CC4)C3)n2n1)C1CC1 (single isomer, unassigned) [Compound 6-7]
[1]
  IC50: 829 nM
[2]
  IC50: 63 nM
[3]
  IC50: 9.39 µM
[4]
  IC50: 998 nM

## O=C(Nc1nc2cccc([C@@H]3CCC4(CCN(C(=O)[C@@H]5CC5(F)F)CC4)C3)n2n1)C1CC1 (single isomer, unassigned) [Compound 6-8]
[1]
  IC50: 570 nM
[2]
  IC50: 381 nM
[3]
  IC50: > 10 µM
[4]
  IC50: 1920 nM

Source: US12419873B2, “Use of JAK inhibitors in preparation of drugs for treating JAK kinase-related diseases” (ZHUHAI UNITED LABORATORIES CO., LTD., priority 2020, dated 2025)
